# Publication PMC3931418 (Nature, 2014)
# Target: BRIL-δOR(ΔN/ΔC) (Sf9) (Homo sapiens, UniProt P41143, P37S)
# Format: binding
# Sequence of BRIL-δOR(ΔN/ΔC) (Sf9) (P41143 36-338 P37S): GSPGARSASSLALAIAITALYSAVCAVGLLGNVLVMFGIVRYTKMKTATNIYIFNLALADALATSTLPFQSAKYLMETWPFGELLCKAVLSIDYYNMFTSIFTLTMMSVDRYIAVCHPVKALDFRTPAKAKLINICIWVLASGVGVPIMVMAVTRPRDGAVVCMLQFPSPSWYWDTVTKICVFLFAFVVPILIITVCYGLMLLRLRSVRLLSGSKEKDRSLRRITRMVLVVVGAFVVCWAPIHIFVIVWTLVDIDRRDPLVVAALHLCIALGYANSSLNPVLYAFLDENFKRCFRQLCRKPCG
smiles,measurement,setting,value
[Na+] [sodium],Hill Coefficient,,0.79 ± 0.02
same,Na+ pKB ± SEM,,1.79 ± 0.11
same,pα ± SEM,,0.86 ± 0.05
same,α,,0.138
same,Kb,read-out: Na+ KB,15.9 mM
